Results: patent publication US11213494B2 (priority 2016, dated 2022)

How the values were obtained:
[1] = test system: RTT mice (Mecp2Jae females); assay: Intermittent very low dose ketamine regimen with plethysmography; format: in vivo; conditions: 3 mg/kg once every 3 days for two weeks, measured 24 hours after the last injection
Experimental: FIG. 14 illustrates a very low dose ketamine (3 mg/kg) dosing regimen for the treatment of RTT in miceMecp2Jae OC females treated once every 72 hours for two weeks (saline or Ketamine 3 mg/kg) with plethysmography measurement 24 hours after the last injection.
This Example evaluated a ketamine dosing regimen for the treatment of Rett syndrome. […] These effects are consistent with the ability of ketamine to increase activity in cortical pyramidal cells by selectively inhibiting cortical inhibitory interneurons.

[2] = in vivo; cited from earlier work
Mecp2 Het mice = assay: Prepulse inhibition (PPI) of the acoustic startle response; format: in vivo; conditions: ketamine 8 mg/kg; for % PPI 73 dB: prepulse 73 dB; for % PPI 76 dB: prepulse 76 dB; for % PPI 82 dB: prepulse 82 dB
Experimental: Prepulse inhibition (PPI) of the acoustic startle response (ASR) was measured to assess sensorimotor gating function using Med Associates Startle Response recording system. Mice were divided into four groups (Het ketamine, Het vehicle, Wt ketamine, Wt vehicle), and received injections of either ketamine (8 mg/kg) or an equivalent amount of saline immediately before they were placed individually inside a small-sized, nonrestrictive, cubical Plexiglas recording chamber [2.5 inches (L)×2.5 inches (W)×1.75 inches (H)] fixed on an accelerometer platform and allowed to acclimate for 5 min. Subsequently, the mouse was exposed to 4 testing blocks. In the first testing block, the initial startle response amplitude was determined by delivering a 40 ms pulse of 120 dB broadband white noise and recording the maximum startle amplitude (Vmax). A baseline startle response was determined by repeating this recording paradigm for six consecutive trials (with 8-23 s between each stimulus) and calculating the average Vmax measured in those trials. In the second and third testing blocks, the mice were exposed to a series of “pulse-only” or “prepulse-pulse pair” stimuli to determine the effect that a reduced intensity prepulse had on the acoustic startle response. The pulse-only stimulus consisted of an 80 ms stimulus of 120 dB. The prepulse-pulse pair trials were conducted by delivering a single 20 ms prepulse, with an intensity of 73, 76 or 82 dB before an 80 ms stimulus with an intensity of 120 dB. An average delay of 15 s (8-23 s) occurred between each stimulus. Each prepulse-pulse pair trial was repeated 10 times, pulse only trials were repeated 12 times. The Vmax measured from each prepulse-pulse trial was compared with the Vmax measured from the 120 dB pulse-only trials, and a percentage prepulse inhibition (% PPI) was calculated for each prepulse intensity. In the fourth testing block, startle response Vmax was recorded from 6 additional 40 ms pulses of 120 dB broadband white noise (with 8-23 s between each stimulus) and compared with the baseline startle response from the first testing block to eliminate the possibility of habituation to the acoustic stimulus throughout the test.

[3] = test system: Fos expression in the forebrain (piriform cortex); assay: Fos immunostaining 90 min after ketamine injection, count of Fos-positive cells; format: in vivo, mice; conditions: for number of Fos-positive cells in the piriform cortex: 90 min after injection
Experimental: Three- and 6-week-old male mice, or 11-week-old female mice, were deeply anesthetized by inhalation of isoflurane and perfused transcardially with PBS followed by ice-cold 4% paraformaldehyde in 0.1Mphosphate buffer, pH7.4, within 10 min. […] Brains were postfixed in 4% paraformaldehyde for 2.5 h, cryoprotected in 25% sucrose overnight, then frozen in 2-methylbutane at −45° C. and stored at −80° C. Coronal sections were cut at 40 μm with a cryostat microtome (Jung Frigocut 2800 N) and stored in PBS at 4° C.
Free-floating 40 μm sections were processed for Fos immunostaining by blocking with 10% goat serum in dilution buffer (PBS, BSA, 0.3% Triton X-100) for 1.5 h and then incubated overnight at room temperature (20±2 h) in rabbit polyclonal anti-c-Fos primary antibody (1:3000, Calbiochem) in dilution buffer plus 10% goat serum. After sequential rinse steps in dilution buffer and PBS, sections were incubated in biotinylated goat anti-rabbit IgG secondary antibody (1:400, Vector Labs) in dilution buffer plus 15% goat serum for 1 h. After rinsing in PBS, sections were incubated in avidin and biotinylated horseradish peroxidase complex (ABC, 1:150, Vector Labs). Finally, sections were developed using the Sigma Fast diaminobenzidine and urea hydrogen peroxide set, mounted on Super Frost Plus slides and coverslipped using VectaShield (Vector Labs).
Animals were administered ketamine (8, 20, or 100 mg/kg, i.p.) or an equivalent volume of saline and then returned to their home cage for 90 min. Subsequently, the animals were deeply anesthetized by inhalation of isoflurane, perfused transcardially, and processed for Fos staining as described above.
Sections were visualized and photographed using an AxioSkop2 microscope (Zeiss) equipped with a Quantifire XI microscope camera (Optronics). Fos positive cells were counted using point by-point analysis with Neurolucida software (MBF Bioscience). Before analysis, the photomicrographs were coded so that the observers were blinded to the genotype. Cells were counted in every third section through the nTS, and in a representative subset of sections through the other brain regions analyzed. All sections were analyzed twice by two independent and blinded observers, and respective counts were averaged. The nTS was sampled at 12 levels through the rostro-caudal extent of the nucleus and the average counts at each level were then added together to estimate the total number of labeled cells per animal. To define genotype effects on Fos expression, G*Power 3 power analysis software was used to determine group sizes.

CNC1(c2ccccc2Cl)CCCCC1=O (stereo not drawn) [ketamine]
apneic breathing [1]: complete elimination | half-life [2]: less than 1 hour | % PPI 73 dB (Mecp2 Het mice; Het mice): 5.3±5.8% | % PPI 76 dB (Mecp2 Het mice; Het mice): 17.8±2.9% | % PPI 82 dB (Mecp2 Het mice; Het mice): 21.4±6.4% | % PPI 73 dB (Mecp2 Het mice; Wt mice): 7.8±4.1% | % PPI 76 dB (Mecp2 Het mice; Wt mice): 12.8±4.8% | % PPI 82 dB (Mecp2 Het mice; Wt mice): 24.1±5.8% | number of Fos-positive cells in the piriform cortex ([3]; Null mice, ketamine 20 mg/kg i.p.): 83.2±18.2 cells | number of Fos-positive cells in the piriform cortex ([3]; Null mice, ketamine 100 mg/kg i.p.): 116.3±26.4 cells | number of Fos-positive cells in the piriform cortex ([3]; Wt mice, ketamine 100 mg/kg i.p.): 119.3±17.2 cells | increase in the number of Fos-positive cells ([3]; Wt mice, ketamine 100 mg/kg, piriform cortex): 20%
